The values that follow come from patent publication US9346758B2, “Pyridinone compounds for use in photodynamic therapy” (UNIVERSITY OF EXETER, priority 2012, dated 2016).

Values joined by “and” are separate entries in the source; they are usually repeats but may differ in a detail not shown here. Equal entries are not always repeated.

Data set [1] has as its system human epithelial squamous cell carcinoma cells (A431). In words: PpIX fluorescence accumulation.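 Note: PpIX fluorescence accumulating inside A431 cells, read under dim light to limit photobleaching.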 The note with it: A431 cells.
Experimental: (§1) Briefly, cells were seeded at 2×10^4 cells per well in a 96 well plate and left to adhere overnight. Test solutions were prepared on the day of the assay and applied to the cells. The level of PpIX produced was monitored using a multi-well fluorescent plate reader with a 400 (±30) nm excitation filter and a 645 (±40) nm emission filter, with the level of fluorescence produced being directly proportional to the level of PpIX present. Readings were taken hourly for 6 hours and were conducted under low light conditions to reduce photobleaching of PpIX.
These were tested alongside equimolar concentrations of ALA, ALA and CP94 (3), MAL, and MAL and CP94 (3), with all test compounds being investigated in human dermal fibroblasts (84BR; FIGS. 2A and 2B), human epithelial squamous cell carcinoma cells (A431; FIGS. 3A and 3B) and human glioblastoma cells (U87MG; FIGS. 4A and 4B).
Data set [2] has the same test system. The experiment in a line: Cell viability (NRU assay) after irradiation with varying incubation periods (2, 3 or 4 hours). Type of data set: cell-based. The note with it: A431 cells, then red light 37 J/cm^2, NRU assay, individual replicates.
Experimental: Neutral red is an inert dye actively taken up and stored by viable (living) cells, an action which is unable to be performed by non-viable cells, therefore the level of neutral red taken up is directly proportional to the number of viable cells present following a given exposure. Following uptake of the dye, cells are lysed and the level of neutral red quantified using a plate reader.
After the relevant incubation period, the cells were irradiated with red light (37 J/cm^2; 635±2 nm; Aktilite, Galderma, UK).
Data set [3] shares this test system. In words: PpIX fluorescence after varying incubation periods (2, 3 or 4 hours). The following applies: for PpIX fluorescence: A431 cells, individual replicates.
Experimental: as §1
Data set [4] concerns MRC-5 (human embryonic lung fibroblast) cells. The experiment in a line: Toxicity testing: neutral red uptake (NRU) assay, inherent (dark) toxicity. The following applies: 0.01% (v/v), positive control. The protocol:
Control cells were incubated in standard cell culture medium.

In data set [5] the test system is human dermal fibroblasts (84BR). The experiment in a line: PDT efficacy: cell viability (NRU assay) following irradiation.
Experimental: (§2) To assess the effect of AP2-18 (8) on PpIX-induced PDT efficacy, the same three cell types were exposed to equimolar concentrations of ALA, ALA and CP94 (3), MAL, MAL and CP94 (3), and AP2-18 (8) (as described previously) and incubated in the dark for 4 hours. The level of PpIX accumulation was then quantified as before, prior to irradiation with red light (37 J/cm^2; 635±2 nm; Aktilite, Galderma, UK).
Data set [6] relates to human epithelial squamous cell carcinoma cells (A431). Described as above. Type of data set: cell-based. The note with it: 4 h dark incubation, red light 37 J/cm^2, normalised to blank control.
Experimental: as §2
Data set [7] relates to human glioblastoma cells (U87MG). The description is as above. The following applies: 500 μM (combinations: 500 μM each), 4 h dark incubation, red light 37 J/cm^2, normalised to blank control. Type of data set: cell-based.
Experimental: as §2
Setting [8] is: 250 μM (each drug), incubation time 2 hours, 250 µM.
The mark [9] stands for this setting: 250 μM (each drug), incubation time 3 hours, 250 µM.
Setting [10] is: 250 μM (each drug), incubation time 4 hours, 250 µM.
The mark [11] stands for this setting: 500 μM (each drug), incubation time 2 hours, 500 µM.
Where [12] appears, read: 500 μM (each drug), incubation time 3 hours, 500 µM.
[13] abbreviates: 500 μM (each drug), incubation time 4 hours, 500 µM.
Setting [14] is: 1000 μM (each drug), incubation time 2 hours, 1000 µM.
The mark [15] stands for this setting: 1000 μM (each drug), incubation time 3 hours, 1000 µM.
[16] abbreviates: 1000 μM (each drug), incubation time 4 hours, 1000 µM.
Where [17] appears, read: 500 μM (each drug), incubation time 2 hours.
[18] abbreviates: 500 μM (each drug), incubation time 3 hours.
Where [19] appears, read: 500 μM (each drug), incubation time 4 hours.
The mark [20] stands for this setting: 1000 μM (each drug), incubation time 2 hours.
The mark [21] stands for this setting: 1000 μM (each drug), incubation time 3 hours.
[22] abbreviates: 1000 μM (each drug), incubation time 4 hours.

Take `NCC(=O)CCC(=O)O` [ALA, aminolevulinic acid]: the PpIX accumulation in data set [1] (500 μM (each component), exposure time 4 hours) was 22.67 and 25.67 and 27.67 and 38 and 36 and 43; in data set [1] (500 μM (each component), exposure time 5 hours) it was 39.67 and 42.67 and 45.67 and 49.33 and 51.33; in data set [1] (500 μM (each component), exposure time 6 hours), 52.33 and 55.33 and 61.33 and 61.67 and 62.67; in data set [1] (1000 μM (each component), exposure time 4 hours), 32.33 and 45.33 and 43.33 and 38.33; in data set [1] (1000 μM (each component), exposure time 5 hours), 50.67 and 63.67 and 60.67 and 51.67 and 54.67 and 57.67; in data set [1] (1000 μM (each component), exposure time 6 hours), 63 and 79 and 72 and 65 and 68 and 75. For the same compound, the cell viability in data set [2] (setting [8]) is 104.2825 and 103.9063 and 123.5695 and 112.4377 and 117.6227 and 97.71 and 44.14 and 34.7079 and 50.73; in data set [2] (setting [9]), 124.0654 and 135.6267 and 95.31 and 55.77 and 55.32 and 62.02 and 56.05 and 85.67 and 55.08 and 120.1384 and 57.18 and 77.31; in data set [2] (setting [10]), 82.01 and 64.97 and 20.14 and 125.0307 and 150.1618 and 127.1037 and 6.313 and 9.566 and 15.91; in data set [2] (setting [11]), 99.84 and 113.3557 and 112.7404 and 95.2285 and 69.94 and 82.25 and 65.56 and 62.54 and 64.53; in data set [2] (setting [12]), 118.05 and 77.38 and 69.99 and 77.18 and 78.53 and 70.11 and 42.15 and 44.3852 and 60.85 and 274.4678 and 51.1 and 55.1; in data set [2] (setting [13]), 67.69 and 28.73 and 8.056 and 111.2275 and 105.7573 and 29.3785 and 108.0828 and 59.78 and 39.7. Moreover, the cell viability in data set [2] (setting [14]) is 87.3 and 106.5283 and 118.4391 and 110.6882 and 113.0739 and 122.8714 and 119.6405 and 111.0759 and 80.15; in data set [2] (setting [15]), 146.327 and 79.29 and 120.4428 and 43.82 and 38.85 and 34.8 and 39.79 and 27.42 and 54.75 and 57.2548 and 73.63 and 60.04; in data set [2] (setting [16]) it was 59.3 and 27.29 and 6.353 and 109.5082 and 86.85 and 18.6677 and 42.58 and 43.47 and 28.34. The PpIX fluorescence is −3.67 and −1.67 and −2.67 and 15.33 and 12.33 and 19.33 and 3.667 and 0.6667 and 5 in data set [3] (setting [17]); 7 and 9 and 6 and 27 and 24 and 32 and 2.667 (2×) and 4.667 in data set [3] (setting [18]); 22.67 and 25.67 and 27.67 and 38 and 36 and 43 and 5 and 4 and 6.667 in data set [3] (setting [19]); 1.33 and 9.33 and 14.33 and 12.33 and 15.33 and 16.33 and 8.333 and 6.333 and 9.667 in data set [3] (setting [20]); 14.33 and 25.33 and 26.33 and 27.33 and 28.33 and 32.33 and 12.33 and 10.33 and 9.333 in data set [3] (setting [21]); 32.33 and 45.33 (2×) and 43.33 and 38.33 (2×) and 12.33 (2×) and 12 in data set [3] (setting [22]).

As to `OO` [H2O2, hydrogen peroxide], the “cell viability by NRU” value in data set [4] is recorded as “significant reduction in cell viability”.

As to `CCc1c(O)c(O)cc[n+]1CC.[Cl-]` [CP94], the “effect of iron chelator on PpIX levels” value in data set [3] (A431, added to the ALA or MAL incubation period) is recorded as “improved PpIX levels”. The “effect of iron chelator on PDT effect of ALA and MAL” value in data set [5] (84BR, added to ALA or MAL) is “improved the PDT effect of both ALA and MAL in a concentration dependent manner”.

With `COC(=O)CCC(=O)CN` [MAL, methyl aminolevulinate], the “cell viability following irradiation” value in data set [6] (250 μM (combinations: 250 μM each)) was 90.46% and 107.8629% and 109.4385% and 93.64% and 106.3667%; in data set [6] (500 μM (combinations: 500 μM each)) it was 90.24% and 110.2301% and 98.69% and 113.2846% and 104.0869% and 74.42%; in data set [7], 83.8% and 72.46% and 73.96% and 78.24% and 80.7%. The viability at 250 µM in data set [6] (Homo sapiens, A-431, light or radiation study, 4 h, 250 μM (combinations: 250 μM each)) is 110%. Further, the viability at 500 µM in data set [7] (Homo sapiens, U-87 MG, light or radiation study, 4 h) turned out to be 81.6%; in data set [5] (Homo sapiens, Fibroblast, light or radiation study, 4 h, read-out: cell viability following irradiation, 84BR, 500 μM, 4 hours in the dark, red light 37 J/cm^2, NRU, normalised against blank control cells), 80.9%. In addition, the cell viability in data set [2] (setting [8]) was 78.63 and 100.9237 and 89.58 and 117.6227 and 107.2209 and 106.7755 and 45.7309 and 63.26 and 57.86; in data set [2] (setting [9]), 92.9 and 73.67 and 65.45 and 62.6519 and 51.74 and 54.37 and 33.36 and 40.45 and 63.31 and 38.2134 and 54.71 and 47.85; in data set [2] (setting [10]), 90.46 and 107.8629 and 109.4385 and 93.64 and 106.3667 and 111.1665 and 115.1445 and 124.4547; in data set [2] (setting [11]), 103.8357 and 110.62 and 117.5455 and 82.92 and 108.8432 and 82.89 and 99.5 and 114.8824 and 75.71; in data set [2] (setting [12]), 40.78 and 47.71 and 49.73 and 71.71 and 76.89 and 81.87 and 74.41 and 55.25 and 104.0986 and 49.38 and 75.04 and 67.4; in data set [2] (setting [13]) it was 90.24 and 110.2301 and 98.69 and 113.2846 and 104.0869 and 74.42 and 104.4856 and 97.36 and 135.6405. Further, the cell viability was 113.344 and 113.9162 and 113.1911 and 108.366 and 113.6783 and 85.84 and 45.89 and 39.15 and 53.82 in data set [2] (setting [14]); 93.27 and 84.83 and 88.71 and 39.35 and 38.5 and 43.01 and 59.91 and 53.88 and 52.9157 and 75.55 and 92.95 and 90.52 in data set [2] (setting [15]); 91.78 and 85.804 and 110.3323 and 138.7061 and 132.5587 and 155.8802 and 165.2883 and 91.73 and 106.1163 in data set [2] (setting [16]). Also, the PpIX fluorescence in data set [3] (setting [17]) is −7.33 and 4.67 and −5.67 (2×) and −7.67 and 8.67 and −2.33 and 1.67 and 21; in data set [3] (setting [18]), −3.67 and −6.67 and 5.33 and −2.67 (2×) and 0.33 and 7.67 and −2.33 and 1.67; in data set [3] (setting [19]), −4.33 and −7.33 and 3.67 (2×) and 0.67 and 1.67 and 9 and 0 and 2; in data set [3] (setting [20]), 28 and 21 and 9.67 and 10.67 and 11.67 and −3.667 and 0.3333 and −8.333 and 51; in data set [3] (setting [21]), 45 and 50 and 42 and 22.67 and 25.67 and 20.67 and −3.333 and 0.6667 and −10.3333; in data set [3] (setting [22]) it was 70 and 74 and 64 and 34.33 and 39.33 and 30.33 and −2 and 4 and −8.333. Besides, the viability at 1000 µM in data set [5] (Homo sapiens, Fibroblast, light or radiation study, 4 h, read-out: cell viability following irradiation, 84BR, 1000 μM, 4 hours in the dark, red light 37 J/cm^2, NRU, normalised against blank control cells) turned out to be 97.3%.
